Test results published in patent US11730720B2, “ALK5 inhibitors” (THERAVANCE BIOPHARMA R&D IP, LLC, priority 2018, dated 2023).

Key:
[1] = target: T1, recombinant human ALK5 (TGF-βR1) protein (Homo sapiens, UniProt P36897); assay: Biochemical ALK5 (TGF-βR1) assay to measure pKi (LANCE Ultra ULight kinase assay); settings: apparent pKi, converted from pIC50 using the Cheng-Prusoff equation
T1 construct: purchased Life Technologies PR9075A
T1 sequence (P36897 34-503): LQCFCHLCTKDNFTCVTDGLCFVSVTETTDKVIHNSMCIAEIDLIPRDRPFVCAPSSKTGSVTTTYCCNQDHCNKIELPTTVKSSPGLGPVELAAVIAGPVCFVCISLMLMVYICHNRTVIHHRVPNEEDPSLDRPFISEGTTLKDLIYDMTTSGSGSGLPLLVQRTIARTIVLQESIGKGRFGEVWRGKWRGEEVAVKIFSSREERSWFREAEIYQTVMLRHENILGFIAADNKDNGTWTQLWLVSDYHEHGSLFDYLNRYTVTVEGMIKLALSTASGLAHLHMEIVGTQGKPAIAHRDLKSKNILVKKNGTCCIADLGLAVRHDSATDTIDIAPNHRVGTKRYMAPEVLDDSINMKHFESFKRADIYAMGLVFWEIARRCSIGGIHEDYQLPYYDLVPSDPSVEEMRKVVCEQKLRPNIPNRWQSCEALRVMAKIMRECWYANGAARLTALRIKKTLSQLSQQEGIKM
Experimental: Example 254: Biochemical ALK5 (TGF-βR1) Assay to Measure pKi
The assays were performed in a 384-well plate (24 columns×16 wells/rows). An Echo® 550 Liquid Handler (Labcyte) was used to prepare various intermediate concentrations of compounds of the present disclosure in 100% DMSO. From the intermediate concentrations, a range of concentrations (from 10 μM to 25 pM corresponding to volumes up to 105 nL) were prepared and ejected into a final assay plate to be used to create individual dose response curves for each of the subject compounds. To a separate column within the assay plate, 105 nL of DMSO in each well was used to establish a maximum assay signal. Additionally, 105 nL of 100 μM SD-208, a selective TGF-βR1 inhibitor (Catalog #S7624, Selleck Chemicals), was used in another column of wells to establish a minimal assay signal.
With a multidrop dispenser, 8 μL of enzyme mixture (1.25× final) was added to each well. The enzyme mixture consisted of 250 pM ALK5 enzyme and 62.5 nM peptide substrate (LANCE® (lanthanide chelate excite) Ultra ULight™-DNA Topoisomerase 2-alpha (Thr1342)) prepared in assay buffer (50 mM HEPES, 10 mM MgCl2, 1 mM EGTA, 0.01% Tween-20, pH 7.5 at room temperature) with 2 mM DTT added prior to use. The plate was then sealed with an adhesive seal and allowed to equilibrate for 60 minutes at room temperature.
Next, 2 μL of 125 μM ATP (5× final, 125 μM ATP prepared in assay buffer with 2 mM DTT) was added to the incubated mixtures, covered with a MicroClime® Environmental Lid (Product No. LLS-0310, Labcyte) and immediately transferred to 37° C. The reactions were allowed to proceed at 37° C. for 60 minutes before terminating with the addition of 10 μL of detection antibody (LANCE® (lanthanide chelate excite) Ultra Europium-anti-phospo-DNA Topoisomerase 2-alpha (Thr1342)) in detection mixture (12 mM EDTA, 4 nM detection antibody prepared in detection buffer (50 mM Tris-HCl, 150 mM NaCl, 0.5% BSA (Fraction V), pH 7.0)) at room temperature. The plate was then read on a Perkin Elmer EnVision Plate Reader using europium specific reader settings with excitation and emission wavelengths set to 320 or 340 nm and 665 nm, respectively.
For dose-response analyses, percent inhibition versus compound concentrations were plotted, and pIC50 values were determined from a 4-parameter robust fit model with GraphPad Prism V5 Software (GraphPad Software, Inc., La Jolla, Calif.). This model obtains pIC50 values by fitting the sigmodial dose-response (variable slope) equation to the data. Results were expressed as pIC50 (negative logarithm of IC50) and subsequently converted to pKi (negative logarithm of dissociate constant, K) using the Cheng-Prusoff equation.
The higher the value of pKi (lower value of Ki), the greater the inhibition of ALK5 activity.

[2] = test system: TGF-β-stimulated SMAD3 phosphorylation in BEAS-2B cells; assay: Cellular ALK5 potency assay, inhibition of TGF-β stimulated pSMAD3 formation in BEAS-2B cells; format: cell-based; settings: Homo sapiens, inhibition of TGF-β (10 ng/mL) stimulated pSMAD3 formation, 1 hour compound incubation, read-out: BEAS2B pIC50 (converted)
Experimental: Example 255: Cellular ALK5 Potency Assay to Measure pIC50, Inhibition of TGF-β Stimulated pSMAD3 Formation in BEAS-2B Cells
The potency of compounds of the present disclosure for inhibition of TGF-β-stimulated SMAD3 phosphorylation was measured in BEAS-2B cells, a human lung epithelial cell line. TGF-β signals through activin receptor-like kinase 5 (ALK5) immediately prior to SMAD3 phosphorylation.
BEAS-2B cells were grown using 50% DMEM (Life Technologies) and 50% F-12 (Life Technologies) media, supplemented with 10% Fetal Bovine Serum (ATCC), 25 mM HEPES (Life Technologies), and 1×Pen-Strep (Life Technologies). Cells were cultured in a humidified incubator set at 37° C., 5% CO2, and trypsonized using 0.25% Trypsin with 0.5% polyvinylpyrrolidone (PVP).
For the assay, BEAS-2B cells were seeded at 7,500 cells/well (25 μL/well) in a 384-well plate and cultured overnight. Before dosing, growth media was aspirated and the wells were rinsed with HBSS Buffer (HBSS with Calcium and Magnesium, Life Technologies) supplemented with 25 mM HEPES (Life Technologies) and 1% Bovine Serum Albumin (Roche). Compounds were serially diluted in DMSO, then further diluted with supplemented HBSS Buffer (50 μL/well) to create a compound plate 3× of the final assay concentration, at 0.3% DMSO. The diluted compounds were then added to the cells (8 μL/well) and incubated at 37° C., 5% CO2 for 1 hour. After the compound incubation, TGF-β (R&D Systems) reconstituted in supplemented HBSS Buffer was added to the cells ([…], final concentration 10 ng/mL) and incubated for a further 30 minutes, after which the cells were immediately lysed with AlphaLISA lysis buffer (PerkinElmer). AlphaLISA Acceptor and Detector beads (PerkinElmer) were added 2 hours apart, then incubated overnight to be read the next day. The potency of the compound was determined through analysis of dose-dependent quantified changes in pSMAD3 signal from baseline (non-compound treated TGF-β stimulated cells). Data are expressed as pIC50 (negative decadic logarithm IC50) values.

Work on `CNCCn1cc(-c2cnc3ccc(-c4nc[nH]c4-c4cc(Cl)c(F)cc4F)cc3c2)cn1` [Compound 22-2, 2-(4-(6-(5-(5-chloro-2,4-difluorophenyl)-1H-imidazol-4-yl)quinolin-3-yl)-1H-pyrazol-1-yl)-N-methylethan-1-amine] yielded a Ki [1] of 0.0398 to 0.316 nM and an IC50 [2] of 25.1 to 158 nM.
`Fc1ccc(Cl)cc1-c1[nH]cnc1-c1ccc2ncc(-c3cc4n(n3)CCNC4)cc2c1` [Compound 17-11, 6-[5-(5-chloro-2-fluoro-phenyl)-1H-imidazol-4-yl]-3-(4,5,6,7-tetrahydropyrazolo[1,5-a]pyrazin-2-yl)quinoline] showed a Ki [1] of 0.0398 to 0.316 nM and an IC50 [2] of no more than 20 nM.
With `CN1CCC(N(C)c2cnc3ccc(-c4c[nH]nc4-c4cc(Cl)ccc4F)nc3c2)C1` (racemic) [Compound 1-79, 6-[3-(5-chloro-2-fluoro-phenyl)-1H-pyrazol-4-yl]-N-methyl-N-[rac-(3R)-1-methylpyrrolidin-3-yl]-1,5-naphthyridin-3-amine] the Ki [1] was 0.0398 to 0.316 nM and the IC50 [2] was no more than 20 nM.
`Fc1ccc(-c2[nH]cnc2-c2ccc3ncc(NCCN4CCNCC4)cc3n2)cc1F` [Compound 9-1, 6-(5-(3,4-difluorophenyl)-1H-imidazol-4-yl)-N-(2-(piperazin-1-yl)ethyl)-1,5-naphthyridin-3-amine] gave a Ki [1] of 0.398 to 3.16 nM and an IC50 [2] of 200 to 1260 nM.
For `CNCCn1ccc(-c2cnc3ccc(-c4c[nH]nc4-c4ccc(F)c(F)c4)nc3c2)n1` [Compound 8-14, 2-[3-[6-[3-(3,4-difluorophenyl)-1H-pyrazol-4-yl]-1,5-naphthyridin-3-yl]pyrazol-1-yl]-N-methyl-ethanamine], the Ki [1] was 0.398 to 3.16 nM and the IC50 [2] was 25.1 to 158 nM.
Compound `CC(C)N1CC=C(c2cnc3ccc(-c4c[nH]nc4-c4cc(Cl)c(F)cc4F)nc3c2)C1` [Compound 6-44, 2-[3-(5-chloro-2,4-difluoro-phenyl)-1H-pyrazol-4-yl]-7-(1-isopropyl-2,5-dihydropyrrol-3-yl)-1,5-naphthyridine] has a Ki [1] of 0.0398 to 0.316 nM and an IC50 [2] of no more than 20 nM.
Work on `COCc1cccc(-c2[nH]cnc2-c2ccc3ncc(NCCN4CCN(C(C)C)CC4)cc3n2)c1` [Compound 15-2, N-[2-(4-isopropoylpiperazin-1-yl)ethyl]-6-[5-[3-(methoxymethyl)phenyl]-1H-imidazol-4-yl]-1,5-naphthyridin-3-amine] yielded a Ki [1] of 3.98 to 31.6 nM and an IC50 [2] of 200 to 1260 nM.
For `N[C@@H]1CCCC[C@H]1n1cc(-c2cnc3ccc(-c4nc[nH]c4-c4cc(Cl)c(F)cc4F)cc3c2)cn1` [Compound 7-7, (1R,2R)-2-[4-[6-[5-(5-chloro-2,4-difluoro-phenyl)-1H-imidazol-4-yl]-3-quinolyl]pyrazol-1-yl]cyclohexanamine], the Ki [1] was 0.0398 to 0.316 nM and the IC50 [2] was 25.1 to 158 nM.
With `CC1(C)CCCN1CCNc1cnc2ccc(-c3c[nH]nc3-c3ccc(F)c(F)c3)nc2c1` [Compound 8-2, 6-[3-(3,4-difluorophenyl)-1H-pyrazol-4-yl]-N-[2-(2,2-dimethylpyrrolidin-1-yl)ethyl]-1,5-naphthyridin-3-amine] the Ki [1] was 3.98 to 31.6 nM and the IC50 [2] was 25.1 to 158 nM.
Compound `Fc1ccc(Cl)cc1-c1[nH]cnc1-c1ccc2ncc(-c3nc4n(n3)CCNC4)cc2c1` [Compound 17-13, 6-[5-(5-chloro-2-fluoro-phenyl)-1H-imidazol-4-yl]-3-(5,6,7,8-tetrahydro-[1,2,4]triazolo[1,5-a]pyrazin-2-yl)quinoline] has a Ki [1] of 0.0398 to 0.316 nM and an IC50 [2] of no more than 20 nM.
Work on `Fc1cc(F)c(-c2n[nH]cc2-c2ccc3ncc(-c4ncc5n4CCN5)cc3n2)cc1Cl` [Compound 6-65, 2-[3-(5-chloro-2,4-difluoro-phenyl)-1H-pyrazol-4-yl]-7-(2,3-dihydro-1H-imidazo[1,2-c]imidazol-5-yl)-1,5-naphthyridine] yielded a Ki [1] of 3.98 to 31.6 nM and an IC50 [2] of 200 to 1260 nM.
`CC(C)N1CCN(c2ccc(Nc3cnc4ccc(-c5nc[nH]c5-c5cc(Cl)ccc5F)nc4c3)nc2)CC1` [Compound 2-5, 6-(5-(5-chloro-2-fluorophenyl)-1H-imidazol-4-yl)-N-(5-(4-isopropylpiperazin-1-yl)pyridin-2-yl)-1,5-naphthyridin-3-amine] gave a Ki [1] of 0.0398 to 0.316 nM and an IC50 [2] of 25.1 to 158 nM.
`CN1CCN(c2ccc(Nc3cnc4ccc(-c5c[nH]nc5-c5cc(Cl)ccc5F)nc4c3)nc2)CC1` [Compound 1-29, 6-(3-(5-chloro-2-fluorophenyl)-1H-pyrazol-4-yl)-N-(5-(4-methylpiperazin-1-yl)pyridin-2-yl)-1,5-naphthyridin-3-amine] was tested, and the Ki [1] was 0.0398 to 0.316 nM and the IC50 [2] was 25.1 to 158 nM.
In the case of `Fc1cc(F)c(-c2n[nH]cc2-c2ccc3ncc(-c4nc5n(n4)CCNC5)cc3n2)cc1Cl` [Compound 6-46, 2-[3-(5-chloro-2,4-difluoro-phenyl)-1H-pyrazol-4-yl]-7-(5,6,7,8-tetrahydro-[1,2,4]triazolo[1,5-a]pyrazin-2-yl)-1,5-naphthyridine], the Ki [1] is reported as 0.0398 to 0.316 nM and the IC50 [2] is reported as 25.1 to 158 nM.
Work on `Fc1cc(F)c(-c2n[nH]cc2-c2ccc3ncccc3n2)cc1Cl` [Compound 6-71, 2-[3-(5-chloro-2,4-difluoro-phenyl)-1H-pyrazol-4-yl]-1,5-naphthyridine] yielded a Ki [1] of 0.398 to 3.16 nM and an IC50 [2] of 25.1 to 158 nM.
In the case of `COC(=O)c1cnc2ccc(-c3[nH]nnc3-c3cc(Cl)ccc3F)nc2c1` [Compound 5-1, methyl 6-(4-(5-chloro-2-fluorophenyl)-1H-1,2,3-triazol-5-yl)-1,5-naphthyridine-3-carboxylate], the Ki [1] is reported as 0.398 to 3.16 nM and the IC50 [2] is reported as 25.1 to 158 nM.
With `CC(C)N1CCN(CCNc2cnc3ccc(-c4nn[nH]c4-c4cc(Cl)ccc4F)cc3c2)CC1` [Compound 18-3, 6-(5-(5-chloro-2-fluorophenyl)-1H-1,2,3-triazol-4-yl)-N-(2-(4-isopropylpiperazin-1-yl)ethyl)quinolin-3-amine] the Ki [1] was 0.398 to 3.16 nM and the IC50 [2] was 25.1 to 158 nM.
With `Fc1ccc(-c2n[nH]cc2-c2ccc3ncc(-c4cnn(CC5CNC5)c4)cc3n2)cc1F` [Compound 8-15, 7-[1-(azetidin-3-ylmethyl)pyrazol-4-yl]-2-[3-(3,4-difluorophenyl)-1H-pyrazol-4-yl]-1,5-naphthyridine] the Ki [1] was no more than 0.0316 nM and the IC50 [2] was 25.1 to 158 nM.
